From the supplement of paper PMC10307832 come the findings set out here.

What all share (test): relative viability (nuclei count vs DMSO), 5 days (fraction); higher = more cells survive
Compound in test [1]: C=CCNC1=C2C[C@@H](C)C[C@H](OC)[C@H](O)[C@@H](C)/C=C(\C)[C@H](OC(N)=O)[C@@H](OC)/C=C\C=C(/C)C(=O)NC(=CC1=O)C2=O [17-AAG] + CC(=O)c1c(C)c2cnc(Nc3ccc(N4CCNCC4)cn3)nc2n(C2CCCC2)c1=O [Palbociclib] (partner 0.5 µM)
In short, it runs like this: (§1)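 Lung cancer cell lines were seeded in 1536-well plates and dosed by pin tool the next day, with either a single drug or a fixed anchor-drug dose combined with five library-drug doses (not always all listed) spaced in √10 steps. Five days later, one step fixed the cells and stained their nuclei (final 0.05% Triton X-100, 1% formaldehyde, 1 ug/ml Hoechst), and nuclei were counted on 4× images. Relative viability is the nuclei count in treated wells divided by the count in vehicle wells, and each value is the median of duplicate plates.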

Compound in test [2]: C=CCNC1=C2C[C@@H](C)C[C@H](OC)[C@H](O)[C@@H](C)/C=C(\C)[C@H](OC(N)=O)[C@@H](OC)/C=C\C=C(/C)C(=O)NC(=CC1=O)C2=O [17-AAG] + CC(C)C[C@H](NC(=O)[C@H](Cc1ccccc1)NC(=O)c1cnccn1)B(O)O [Bortezomib] (partner 0.002 µM)
A digest of the protocol:
as §1

Compound in test [3]: C=CCNC1=C2C[C@@H](C)C[C@H](OC)[C@H](O)[C@@H](C)/C=C(\C)[C@H](OC(N)=O)[C@@H](OC)/C=C\C=C(/C)C(=O)NC(=CC1=O)C2=O [17-AAG] + Cc1nc(Nc2ncc(C(=O)Nc3c(C)cccc3Cl)s2)cc(N2CCN(CCO)CC2)n1 [Dasatinib] (partner 0.075 µM)
In short, it runs like this: as §1

Compound in test [4]: C=CCNC1=C2C[C@@H](C)C[C@H](OC)[C@H](O)[C@@H](C)/C=C(\C)[C@H](OC(N)=O)[C@@H](OC)/C=C\C=C(/C)C(=O)NC(=CC1=O)C2=O [17-AAG] + Cc1nc(NC(=O)N2CCC[C@H]2C(N)=O)sc1-c1ccnc(C(C)(C)C(F)(F)F)c1 [Alpelisib] (partner 2 µM)
A digest of the protocol:
as §1

Regarding NCI-H2228, the relative viability in test [1] (first compound 0.00128 µM) worked out at 0.672; in test [1] (first compound 0.004048 µM), 0.483; in test [1] (first compound 0.0128 µM), 0.131; in test [1] (first compound 0.04048 µM), 0.101; in test [1] (first compound 0.128 µM), 0.107; in test [2] (first compound 0.00128 µM), 0.88. The relative viability stood at 0.304 in test [2] (first compound 0.004048 µM); 0.137 in test [2] (first compound 0.0128 µM); 0.167 in test [2] (first compound 0.04048 µM); 0.135 in test [2] (first compound 0.128 µM); 0.46 in test [3] (first compound 0.00128 µM); 0.119 in test [3] (first compound 0.004048 µM). In addition, the relative viability in test [3] (first compound 0.0128 µM) was 0.0679; in test [3] (first compound 0.04048 µM) it was 0.089; in test [3] (first compound 0.128 µM), 0.0837; in test [4] (first compound 0.00128 µM), 0.781; in test [4] (first compound 0.004048 µM) it was 0.273; in test [4] (first compound 0.0128 µM) it was 0.16. Moreover, the relative viability in test [4] (first compound 0.04048 µM) came to 0.19; in test [4] (first compound 0.128 µM), 0.153.
On to NCI-H2087, for which the relative viability came to 0.315 in test [1] (first compound 0.00128 µM); 0.179 in test [1] (first compound 0.004048 µM); 0.185 in test [1] (first compound 0.0128 µM); 0.0984 in test [1] (first compound 0.04048 µM); 0.108 in test [1] (first compound 0.128 µM); 0.85 in test [2] (first compound 0.00128 µM). Besides, the relative viability in test [2] (first compound 0.004048 µM) turned out to be 0.674; in test [2] (first compound 0.0128 µM), 0.377; in test [2] (first compound 0.04048 µM), 0.215; in test [2] (first compound 0.128 µM), 0.137; in test [3] (first compound 0.00128 µM), 0.872; in test [3] (first compound 0.004048 µM) it was 0.49. The relative viability was found to be 0.0992 in test [3] (first compound 0.0128 µM); 0.13 in test [3] (first compound 0.04048 µM); 0.0882 in test [3] (first compound 0.128 µM); 1.16 in test [4] (first compound 0.00128 µM); 0.904 in test [4] (first compound 0.004048 µM); 0.308 in test [4] (first compound 0.0128 µM). Besides, the relative viability was 0.189 in test [4] (first compound 0.04048 µM) and 0.165 in test [4] (first compound 0.128 µM).
LU99A: the relative viability is 0.434 in test [1] (first compound 0.00128 µM); 0.42 in test [1] (first compound 0.004048 µM); 0.384 in test [1] (first compound 0.0128 µM); 0.454 in test [1] (first compound 0.04048 µM); 0.137 in test [1] (first compound 0.128 µM); 1.06 in test [2] (first compound 0.00128 µM). The relative viability in test [2] (first compound 0.004048 µM) is 1.05; in test [2] (first compound 0.0128 µM), 0.672; in test [2] (first compound 0.04048 µM), 0.445; in test [2] (first compound 0.128 µM), 0.119; in test [3] (first compound 0.00128 µM) it was 0.508; in test [3] (first compound 0.004048 µM), 0.387. Moreover, the relative viability was found to be 0.283 in test [3] (first compound 0.0128 µM); 0.13 in test [3] (first compound 0.04048 µM); 0.0659 in test [3] (first compound 0.128 µM); 0.564 in test [4] (first compound 0.00128 µM); 0.535 in test [4] (first compound 0.004048 µM); 0.477 in test [4] (first compound 0.0128 µM). Besides, the relative viability in test [4] (first compound 0.04048 µM) worked out at 0.4; in test [4] (first compound 0.128 µM), 0.165.
In the case of NCI-H1355, the relative viability worked out at 0.414 in test [1] (first compound 0.00128 µM); 0.386 in test [1] (first compound 0.004048 µM); 0.385 in test [1] (first compound 0.0128 µM); 0.302 in test [1] (first compound 0.04048 µM); 0.157 in test [1] (first compound 0.128 µM); 1.21 in test [2] (first compound 0.00128 µM). The relative viability in test [2] (first compound 0.004048 µM) was determined as 1.11; in test [2] (first compound 0.0128 µM) it was 1.28; in test [2] (first compound 0.04048 µM), 0.26; in test [2] (first compound 0.128 µM), 0.144; in test [3] (first compound 0.00128 µM) it was 0.708; in test [3] (first compound 0.004048 µM), 0.725. For the same cell line, the relative viability in test [3] (first compound 0.0128 µM) was determined as 0.327; in test [3] (first compound 0.04048 µM) it was 0.325; in test [3] (first compound 0.128 µM), 0.156; in test [4] (first compound 0.00128 µM), 0.867; in test [4] (first compound 0.004048 µM), 0.86; in test [4] (first compound 0.0128 µM), 0.884. Moreover, the relative viability came to 0.86 in test [4] (first compound 0.04048 µM) and 0.327 in test [4] (first compound 0.128 µM).
